Read-outs that look alike come from different tables or passages of the source.
Assays:
[1] = pharmacokinetics of MNA in rat plasma after single intravenous administration; type: in vivo, rats; settings: 100 mg/kg
Experimental: (§1) A method using high performance liquid chromatography combined with tandem mass spectrometry (LC/ESI-MS/MS) was developed and validated to determine concentrations of 1-methylnicotinamide (MNA) in rat plasma. […] The pharmacokinetic parameters were determined by a non-compartmental model using Phoenix WinNonlin software (Pharsight, Sannyvale, CA, USA).

[2] = pharmacokinetics of MNA in rat plasma after single intragastric administration; type: in vivo, rats; settings: 100 mg/kg; for AUC0→∞ / F / t0.5 / Cmax / MRT / tmax: MNA in rat plasma, single intragastric administration
Experimental: as §1

[3] = system: plasma coagulation system
Experimental: Coagulation parameters: prothrombin time (PT), activated partial thromboplastin time (aPTT), fibrinogen concentration by Caluss and the prothrombin time percentage ratio (Quick index) were assessed in frozen plasma (-80°C) using a Caog-Chrom 3003 Bio-ksel Grudzi ? dz device.

[4] = Experimental: The complete blood count was assessed approximately 2 minutes after collection in fresh citrated blood using an automatic Horiba ABC Vet device. The following parameters were assessed: white blood cell count (WBC), red blood cell count (RBC), haemoglobin (HGB), haematocrit (HCT), mean corpuscular volume (MCV), mean corpuscular haemoglobin (MCH), mean corpuscular haemoglobin concentration (MCHC) and platelet count (PLT).
platelets = settings: hypertensive rats after arterial thrombosis, 3 days per os twice a day (FIG. 2)
Experimental: The blood was diluted with 0.9% NaCl at a ratio of 1:1 and stirred in an aggregation cuvette at 1200 rpm. Samples of the stirred blood were collected after 20, 40 and 60 min and at "0" time and mixed with a cold solution of ASA (final concentration: 500 µM) at a ratio of 1:1. In these samples, TxB2 was determined using the ELISA assay, according to the manual provided by the manufacturer of the reagent kit.

[5] = TG technique under a nitrogen atmosphere
Experimental: Thermal stability was determined using the TG technique under a nitrogen atmosphere (with the use of the Mettler Toledo Star TGA/DSC 1 device).

normotensive rats = settings: 30 mg/kg i.v., single dose 10 min before induction of thrombosis
Experimental: The normotensive and hypertensive rats were then anesthetised with pentorbital (40 mg/kg, i.p.). After removing the skin in the neck region, an approximately 0.5 cm long section of the left common carotid artery was isolated. To avoid haemorrhaging, the isolation was performed by tearing the surrounding tissues of the artery without the use of sharp instruments. The method of arterial thrombosis (according to Schumacher et al., 1996) with own modification (Kramkowski et al., 2012) involves damage to the endothelium isolated from a section of the artery by electric current (1 mA, 5-15 V, 10 min.). The anode is a stainless steel wire with a bent hook-shaped tip placed in a holder to remain stable during the experiment. Its tip was placed under the artery. A piece of parafilm was placed under the artery to keep it isolated. The cathode was a needle inserted subcutaneously in the hind limb region. Once the stimulation is completed, the formation of thrombus lasts 45 minutes. After this time, the artery was ligated at both sides of the thrombus, and the damaged fragment containing the thrombus was excised. The thrombus was quantitatively extracted from the artery and transferred to a previously tared microscope cover slip. The thrombi were allowed to dry (at room temperature and average humidity) and weighed not earlier than after 24 hours.

[6] = hypertensive (2K1C) rats
fibrin = settings: hypertensive (2K1C) rats, 30 mg/kg i.v.
Remark: listed apart in the source
[7] = colour change from pale yellow to brown
[8] = hypertensive (2K1C) rats, 30 mg/kg i.v.
[9] = hypertensive (2K1C) rats, 30 mg/kg p.o.
[10] = normotensive rats, 10 mg/kg i.v.
[11] = normotensive rats, 30 mg/kg i.v.
[12] = normotensive rats, 100 mg/kg i.v.

## C[n+]1cccc(C(N)=O)c1.[Cl-] [MNACl, 3-carbamoyl-1-methylpyridinium chloride, reference compound]
[1]
  AUC0→∞: 4,362,231 ± 999,203 µg·min/L
  Co: 141,311 ± 56,500 µg/L
  clearance: 24 ± 5 mL/min/kg
  t0.5: 162.5 ± 76.2 min
[1]; read-out: Vss
  Vd: 1.06 ± 0.35 L/kg
[1]; rat, plasma, iv
  MRT: ~43 min
[2]
  AUC0→∞: 407,132 ± 164,906 µg·min/L
  F: 9.33%
  t0.5: 247.4 ± 201 min
[2]; po, read-out: Cmax
  Cmax: 2810 ng/mL
[2]; po, read-out: MRT (converted)
  MRT: 359 min
[2]; po, read-out: tmax (converted)
  tmax: 57.5 min

## C[n+]1cccc(C(N)=O)c1.O=N[O-] [MNANO2, 3-carbamoyl-1-methylpyridinium nitrite]
[3]; [8]
  APTT: 18.46 ± 0.81 s
  Fglevel: 2.36 ± 0.13 ng/mL
  PT: 17.40 ± 0.69 s
  QUICK: 63.50±5.04
[3]; [9]
  APTT: 17.79 ± 0.62 s
  Fglevel: 2.61 ± 0.10 ng/mL
  PT: 18.16 ± 0.47 s
  QUICK: 62.00±4.01
[3]; [10]
  APTT: 2.00 ± 2.68 s
  Fglevel: 2.04 ± 0.09 ng/mL
  PT: 18.23 ± 0.68 s
  QUICK: 61.75±5.42
[3]; [11]
  APTT: 25.67 ± 6.07 s
  Fglevel: 2.15 ± 0.28 ng/mL
  PT: 18.10 ± 0.81 s
  QUICK: 63.00±7.57
[3]; [12]
  APTT: 26.27 ± 2.89 s
  Fglevel: 1.96 ± 0.11 ng/mL
  PT: 19.17 ± 0.27 s
  QUICK: 53.33±1.67
[4]; [8]
  HCT: 38.35±0.49%
  HGB: 12.27 ± 0.16 g/dL
  MCH: 17.51±0.26 pg per cell
  MCHC: 31.65 ± 0.21 g/dL
  MCV: 54.86 ± 0.60 fL
  PLT: 621±18 103/µL
  RBC: 7.36±0.19 106/µL
  WBC: 2.87±0.35 106/µL
[4]; [9]
  HCT: 40.07±0.03%
  HGB: 13.23 ± 0.24 g/dL
  MCH: 18.77±0.71 pg per cell
  MCHC: 32.97 ± 0.58 g/dL
  MCV: 57.00 ± 1.53 fL
  PLT: 630±12 103/µL
  RBC: 7.05±0.18 106/µL
  WBC: 2.93±0.26 106/µL
[4]; [10]
  HCT: 30.03±1.26%
  HGB: 12.15 ± 0.26 g/dL
  MCH: 25.05±0.53 pg per cell
  MCHC: 40.93 ± 1.00 g/dL
  MCV: 61.25 ± 0.25 fL
  PLT: 493±17 10^3/µl
  RBC: 4.90±0.18 106/µl
  WBC: 1.95±0.35 106/µl
[4]; [11]
  HCT: 29.07±1.61%
  HGB: 12.30 ± 0.26 g/dL
  MCH: 25.73±0.92 pg per cell
  MCHC: 42.40 ± 1.32 g/dL
  MCV: 60.68 ± 0.33 fL
  PLT: 489±23 10^3/µl
  RBC: 4.80±0.29 106/µl
  WBC: 1.77±0.43 106/µl
[4]; [12]
  HCT: 33.33±1.31%
  HGB: 12.67 ± 0.47 g/dL
  MCH: 25.53±0.48 pg per cell
  MCHC: 37.97 ± 0.18 g/dL
  MCV: 62.00 ± 1.16 fL
  PLT: 566±56 10^3/µl
  RBC: 5.38±0.21 106/µl
  WBC: 1.12±0.19 106/µl
platelets
  thromboxane B2 (TxB2) production by platelets ex vivo: inhibition of thromboxane B2 (TxB2) production
[1]
  AUC0→∞: 6,948,716 ± 1,810,664 µg·min/L
  Cl: 15 ± 3 mL/min/kg
  Co: 138,078 ± 33,208 µg/L
  Vss: 0.63 ± 0.1 L/kg
  t0.5: 61.7 ± 19.6 min
[2]
  AUC0→∞: 638,056 ± 167,631 µg·min/L
  Cmax: 8,881 ± 5,506 µg/L
  F: 9.18%
  MRT: 232 ± 38.3 min
  t0.5: 178.4 ± 12.2 min
  tmax: 15 ± 10 min
[2]; intragastric administration
  concentration in rat plasma compared to MNACl administration: three times higher
  time of occurrence of the maximum concentration compared to MNACl administration: four times shorter
[5]
  Tonset: 195 °C
  Tonset5%: 170 °C
Normotensive rats
  Thrombus weight: 0.78 ± 0.05 mg
[6]; 30 mg/kg i.v.
  Concentration of MNA in plasma after collecting thrombus: 8.72 ± 4.90 µM
[6]; 30 mg/kg p.o.
  Concentration of MNA in plasma after collecting thrombus: 5.76 ± 3.78 µM
fibrin
  Generation of fibrin (AUC): 186.00±10.23
DMSO
  solubility: soluble
Diethyl ether
  solubility: not soluble
ethanol
  solubility: soluble
hexane
  solubility: not soluble
methanol
  solubility: soluble
water
  solubility: soluble
[7]
  stability of aqueous solutions: not stable over time

— patent EP3008041B1, “3-CARBAMOYL-1-METHYL[…], PROCESS FOR ITS PREPARATION AND ITS USE” (Uniwersytet Jagiellonski, priority 2013, dated 2014)
